# Measured values: patent US8008316B2, “Azonafide derived tumor and cancer targeting compounds” (The United States of America as represented by the …, priority 2006, dated 2011)
# System: Gastrin receptor-expressing rat pancreatic cells (NIH line AR42J)
# Experiment: Viable cell count of AR42J cells after about five days of exposure
# Format: cell-based
# Details: for % Viable Cells: rat
# Protocol: The number of viable cells left in the culture after the five day period was measured, and compared to a control culture that was not exposed either compound. The number of cells remaining in each of the experimental cultures, expressed as a percentage of viable cells in the control culture, is provided in Table 4, below.
structure (smiles),measurement,setting,value
"COc1ccc2c3c(c4ccccc4cc13)C(=O)N(CCN(C)CCN)C2=O [MD117, 2-{2-[(2-aminoethyl)methylamino]ethyl}-6-methoxy-1,2-dihydro-3H-dibenzo[de,h]isoquinoline-1,3-dione]",cell killing at the tested concentrations,"AR42J, 10, 50, 100 and 1000 nM, result in words",killing all cells in the culture at each of the tested concentrations
same,CC50,"Rattus norvegicus, AR-42J, 120 h, read-out: LC50 (median concentration required for death of 50% of the cell population), AR42J, about five days, calculated from the data",3 nM
same,% Viable Cells,0.01 µM,−100%
same,% Viable Cells,0.05 µM,−100%
same,% Viable Cells,0.1 µM,−100%
same,% Viable Cells,1 µM,−100%
